Assay results published in ChEMBL document CHEMBL5715954, “Silencing c-Myc translation as a therapeutic strategy through targeting PI3Kδ and CK1ε in hematological malignancies” (Blood, 2017).

Legend:
Design in all cases: scale not given: the % may be the effect or the level left
[1] = biological target: Mitogen-activated protein kinase kinase kinase 8 (Homo sapiens) (UniProt P41279); assay: Inhibition of human COT1 assessed as enzyme activity at 1 uM using MEK1 (K97R) as substrate preincubated for 20 mins followed by [gamma-33P]-ATP addition and measured after 120 mins by radiometric Hot-SpotSM Kinase assay relative to control
[2] = biological target: Myosin light chain kinase 2, skeletal/cardiac muscle (Homo sapiens) (UniProt Q9H1R3); assay: Inhibition of human MLCK2 assessed as enzyme activity at 1 uM using KKLNRTLSFAEPG as substrate preincubated for 20 mins followed by [gamma-33P]-ATP addition and measured after 120 mins by radiometric Hot-SpotSM Kinase assay relative to control
[3] = biological target: Misshapen-like kinase 1 (Homo sapiens) (UniProt Q8N4C8); assay: Inhibition of human MINK1 assessed as enzyme activity at 1 uM using myelin basic protein as substrate preincubated for 20 mins followed by [gamma-33P]-ATP addition and measured after 120 mins by radiometric Hot-SpotSM Kinase assay relative to control
[4] = biological target: T1, Rhodopsin kinase GRK7 (Homo sapiens) (UniProt Q8WTQ7); assay: Inhibition of human GRK7 assessed as enzyme activity at 1 uM using casein as substrate preincubated for 20 mins followed by [gamma-33P]-ATP addition and measured after 120 mins by radiometric Hot-SpotSM Kinase assay relative to control
T1 sequence (whole entry): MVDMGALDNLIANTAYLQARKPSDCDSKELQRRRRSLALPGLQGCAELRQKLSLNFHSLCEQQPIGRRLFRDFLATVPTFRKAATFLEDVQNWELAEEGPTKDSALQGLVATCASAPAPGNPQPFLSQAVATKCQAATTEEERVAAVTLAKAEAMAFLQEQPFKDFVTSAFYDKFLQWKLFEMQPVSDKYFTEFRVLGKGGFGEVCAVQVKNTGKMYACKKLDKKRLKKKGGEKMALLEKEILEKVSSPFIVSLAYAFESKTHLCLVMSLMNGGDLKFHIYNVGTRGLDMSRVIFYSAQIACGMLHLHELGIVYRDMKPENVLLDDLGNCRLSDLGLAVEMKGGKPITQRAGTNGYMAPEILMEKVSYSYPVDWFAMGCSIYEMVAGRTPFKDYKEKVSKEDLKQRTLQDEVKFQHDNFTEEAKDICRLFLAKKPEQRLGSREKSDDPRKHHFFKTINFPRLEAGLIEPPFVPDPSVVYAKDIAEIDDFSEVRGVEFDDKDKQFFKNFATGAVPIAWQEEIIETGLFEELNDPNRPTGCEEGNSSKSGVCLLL

[5] = biological target: T2, Serine/threonine-protein kinase A-Raf (Homo sapiens) (UniProt P10398); assay: Inhibition of human ARAF assessed as enzyme activity at 1 uM using MEK1 (K97R) as substrate preincubated for 20 mins followed by [gamma-33P]-ATP addition and measured after 120 mins by radiometric Hot-SpotSM Kinase assay relative to control
T2 sequence (whole entry): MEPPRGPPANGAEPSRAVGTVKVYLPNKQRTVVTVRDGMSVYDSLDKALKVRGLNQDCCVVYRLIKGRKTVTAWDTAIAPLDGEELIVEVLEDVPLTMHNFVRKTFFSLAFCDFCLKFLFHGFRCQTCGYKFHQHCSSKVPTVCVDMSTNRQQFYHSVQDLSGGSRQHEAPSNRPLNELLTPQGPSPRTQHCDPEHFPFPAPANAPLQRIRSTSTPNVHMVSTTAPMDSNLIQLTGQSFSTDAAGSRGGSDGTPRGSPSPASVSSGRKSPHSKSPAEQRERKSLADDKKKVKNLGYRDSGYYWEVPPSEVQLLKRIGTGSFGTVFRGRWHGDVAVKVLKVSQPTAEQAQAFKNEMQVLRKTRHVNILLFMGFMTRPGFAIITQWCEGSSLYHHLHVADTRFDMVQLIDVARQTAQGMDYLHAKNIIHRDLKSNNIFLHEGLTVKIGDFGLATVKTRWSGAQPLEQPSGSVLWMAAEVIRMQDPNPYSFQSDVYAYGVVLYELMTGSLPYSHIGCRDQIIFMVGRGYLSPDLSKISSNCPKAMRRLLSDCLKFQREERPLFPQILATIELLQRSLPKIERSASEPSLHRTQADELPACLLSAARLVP

[6] = biological target: T3, Activin receptor type-1B (Homo sapiens) (UniProt P36896); assay: Inhibition of human ALK4 assessed as enzyme activity at 1 uM using casein as substrate preincubated for 20 mins followed by [gamma-33P]-ATP addition and measured after 120 mins by radiometric Hot-SpotSM Kinase assay relative to control
T3 sequence (whole entry): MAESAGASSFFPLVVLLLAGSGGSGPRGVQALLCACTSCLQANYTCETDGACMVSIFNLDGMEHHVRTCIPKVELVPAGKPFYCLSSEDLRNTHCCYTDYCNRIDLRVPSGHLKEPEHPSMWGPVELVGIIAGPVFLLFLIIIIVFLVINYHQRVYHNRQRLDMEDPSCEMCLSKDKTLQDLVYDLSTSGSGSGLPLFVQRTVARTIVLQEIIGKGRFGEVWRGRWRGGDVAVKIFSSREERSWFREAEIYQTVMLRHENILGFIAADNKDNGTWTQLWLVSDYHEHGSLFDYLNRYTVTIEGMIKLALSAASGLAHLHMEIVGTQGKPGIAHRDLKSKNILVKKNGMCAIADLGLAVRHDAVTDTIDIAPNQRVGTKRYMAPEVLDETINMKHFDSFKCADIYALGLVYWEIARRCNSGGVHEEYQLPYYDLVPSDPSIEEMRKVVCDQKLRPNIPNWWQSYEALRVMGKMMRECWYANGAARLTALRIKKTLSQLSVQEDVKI

Chain of Myosin light chain kinase 2, skeletal/cardiac muscle (Homo sapiens) (Q9H1R3 whole entry): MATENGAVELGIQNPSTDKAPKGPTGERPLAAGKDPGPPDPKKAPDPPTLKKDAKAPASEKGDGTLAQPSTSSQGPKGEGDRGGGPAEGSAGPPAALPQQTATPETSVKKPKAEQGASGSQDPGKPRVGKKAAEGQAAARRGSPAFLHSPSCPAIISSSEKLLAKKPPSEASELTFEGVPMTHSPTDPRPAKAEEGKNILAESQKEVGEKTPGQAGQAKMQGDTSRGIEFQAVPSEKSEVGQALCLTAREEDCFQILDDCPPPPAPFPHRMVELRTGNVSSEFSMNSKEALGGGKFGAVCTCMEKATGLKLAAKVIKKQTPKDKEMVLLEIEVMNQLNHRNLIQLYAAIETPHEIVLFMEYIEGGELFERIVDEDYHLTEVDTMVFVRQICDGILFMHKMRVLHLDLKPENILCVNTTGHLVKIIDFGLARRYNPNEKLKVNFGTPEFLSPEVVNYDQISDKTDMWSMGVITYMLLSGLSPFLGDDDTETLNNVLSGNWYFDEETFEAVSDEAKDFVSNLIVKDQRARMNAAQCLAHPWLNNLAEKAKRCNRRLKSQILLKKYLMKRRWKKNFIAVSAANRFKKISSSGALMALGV
Chain of Mitogen-activated protein kinase kinase kinase 8 (Homo sapiens) (P41279 whole entry): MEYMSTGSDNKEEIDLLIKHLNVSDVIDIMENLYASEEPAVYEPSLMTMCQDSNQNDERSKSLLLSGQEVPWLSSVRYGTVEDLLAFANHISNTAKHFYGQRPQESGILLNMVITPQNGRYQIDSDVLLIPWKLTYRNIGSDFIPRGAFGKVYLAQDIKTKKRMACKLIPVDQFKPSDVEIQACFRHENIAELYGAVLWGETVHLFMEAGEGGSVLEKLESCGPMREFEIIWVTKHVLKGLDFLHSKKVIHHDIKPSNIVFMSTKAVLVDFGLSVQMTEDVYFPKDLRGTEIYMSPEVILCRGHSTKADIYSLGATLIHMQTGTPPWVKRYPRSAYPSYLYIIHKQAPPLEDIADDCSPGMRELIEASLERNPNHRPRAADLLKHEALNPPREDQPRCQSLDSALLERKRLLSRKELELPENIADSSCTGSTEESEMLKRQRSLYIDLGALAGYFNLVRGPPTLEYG
Chain of Misshapen-like kinase 1 (Homo sapiens) (Q8N4C8 whole entry, looked up): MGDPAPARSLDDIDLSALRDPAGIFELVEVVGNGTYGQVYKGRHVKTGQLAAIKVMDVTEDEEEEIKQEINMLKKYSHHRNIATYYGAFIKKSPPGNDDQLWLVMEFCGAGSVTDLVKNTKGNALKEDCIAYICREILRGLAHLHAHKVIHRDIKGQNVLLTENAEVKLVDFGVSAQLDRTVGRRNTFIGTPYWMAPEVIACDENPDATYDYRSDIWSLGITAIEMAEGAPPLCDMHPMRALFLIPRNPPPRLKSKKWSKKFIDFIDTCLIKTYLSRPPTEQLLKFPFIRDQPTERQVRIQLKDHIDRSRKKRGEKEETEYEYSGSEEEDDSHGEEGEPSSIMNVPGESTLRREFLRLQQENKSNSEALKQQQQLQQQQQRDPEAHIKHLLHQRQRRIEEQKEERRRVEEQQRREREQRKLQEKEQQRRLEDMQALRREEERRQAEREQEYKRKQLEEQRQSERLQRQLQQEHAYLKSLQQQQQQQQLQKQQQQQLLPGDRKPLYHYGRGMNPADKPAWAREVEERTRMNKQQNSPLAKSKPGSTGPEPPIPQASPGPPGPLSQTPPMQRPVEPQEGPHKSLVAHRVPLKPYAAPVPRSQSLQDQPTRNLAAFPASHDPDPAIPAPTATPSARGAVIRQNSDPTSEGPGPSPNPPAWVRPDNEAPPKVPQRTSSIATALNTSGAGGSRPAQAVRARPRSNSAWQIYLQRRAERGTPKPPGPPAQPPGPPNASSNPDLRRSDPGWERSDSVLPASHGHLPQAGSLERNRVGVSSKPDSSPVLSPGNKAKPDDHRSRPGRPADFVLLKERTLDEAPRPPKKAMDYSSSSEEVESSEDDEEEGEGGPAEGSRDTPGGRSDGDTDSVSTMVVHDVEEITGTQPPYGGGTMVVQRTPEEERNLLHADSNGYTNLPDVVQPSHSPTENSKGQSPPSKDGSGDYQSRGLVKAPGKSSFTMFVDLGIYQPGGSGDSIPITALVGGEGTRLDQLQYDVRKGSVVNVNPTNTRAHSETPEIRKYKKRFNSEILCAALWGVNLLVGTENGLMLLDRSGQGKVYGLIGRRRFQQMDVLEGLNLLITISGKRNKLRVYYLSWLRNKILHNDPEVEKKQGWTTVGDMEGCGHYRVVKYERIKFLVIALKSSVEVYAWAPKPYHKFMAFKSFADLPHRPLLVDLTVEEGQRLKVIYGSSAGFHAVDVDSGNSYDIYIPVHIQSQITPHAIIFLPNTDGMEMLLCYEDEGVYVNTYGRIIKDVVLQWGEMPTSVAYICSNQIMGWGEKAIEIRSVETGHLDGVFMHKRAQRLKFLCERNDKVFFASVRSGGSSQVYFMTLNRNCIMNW

Compound | Activity [1] [%] | Activity [2] [%] | Activity [3] [%] | Activity [4] [%] | Activity [5] [%] | Activity [6] [%]
CC[C@H](Nc1ncnc2[nH]cnc12)c1nc2cccc(F)c2c(=O)n1-c1ccccc1 | 101 | 98.7 | 95.2 | 95 | 92.3 | 101
C[C@H](Nc1ncnc2nc[nH]c12)c1cc2cccc(Cl)c2c(=O)n1-c1ccccc1 | 96.8 | 100 | 97 | 101 | 86.4 | 101
CC(C)Oc1ccc(-c2nn([C@@H](C)c3oc4ccc(F)cc4c(=O)c3-c3cccc(F)c3)c3ncnc(N)c23)cc1F [UMBRALISIB] | 98.2 | 101 | 96.4 | 100 | 84.4 | 106
